The results in this text go back to patent publication US20210290648A1, “Potentiation of B-Lactam Antibiotics and B-Lactam/B-Lactamase Inhibitor Combinations Against Multidrug and Extensively Drug-Resistant Pseudomonas Aeruginosa Using Non-Ribosomal Tobramycin-Cyclam Conjugates” (University of Manitoba, priority 2018, published 2021).

For one experiment, the system named is PA 101243. Nature of the experiment: Checkerboard combination study / MIC. It is filed as cell-based, Pseudomonas aeruginosa. The note with it: PA 101243.
For another experiment, the system named is PA 262. Nature of the experiment: Checkerboard combination study / MIC. It is filed as cell-based, Pseudomonas aeruginosa.
Another experiment has as its system PA108590. Nature of the experiment: MIC / triple combination susceptibility. In kind it is cell-based, Pseudomonas aeruginosa. The note with it: Pseudomonas aeruginosa; P. aeruginosa 108590; FIG. 8 legend. An excerpt:
The diazabicyclooctane β-lactamase inhibitor, avibactam, is able to inhibit a wide range of serine β-lactamases (class A, C, and D) but not metallo-β-lactamases (class B) (50, 51).^50,51 However, the high concentration of avibactam required to neutralize the effects of β-lactamase enzymes in these phenotypes is indicative of concomitant permeability barriers in the isolates, such as reduced porin uptake. […] The results of this study are shown in (FIG. 6). All isolates were resistant to all three β-lactam antibiotics used for the study. […] As expected, the study with meropenem was slightly different from others.
Antimicrobial Susceptibility Assay. The in vitro antimicrobial activity of all compounds/antibiotics against a panel of bacteria was evaluated by microbroth dilution method in accordance with the Clinical and Laboratory Standards Institute (CLSI) guidelines. […]
Checkerboard Assay. […] After incubation, the plates were read on EMax® Plus microplate reader (Molecular Devices, Sunnyvale, Calif., USA) at 590 nm. MIC was recorded as wells with the lowest concentration of drugs with no bacterial growth. The fractional inhibitory concentration (FIC) for each antibiotic was calculated by dividing the MIC of the antibiotic in the presence of adjuvant by the MIC of the antibiotic alone. […]

In the next experiment the test system is PA 91433. Nature of the experiment: Checkerboard combination study / MIC. In kind it is cell-based, Pseudomonas aeruginosa. As to conditions: PA 91433.
Experiment [1] deals with MDR/XDR P. aeruginosa clinical isolates. The experiment can be described thus: MIC and checkerboard, panel of clinical isolates. As to conditions: antibiotic + compound 2 (8.7 μM); resistant P. aeruginosa isolates. In kind it is cell-based, Pseudomonas aeruginosa.
For experiment [2], the system named is MDR PA108590-challenged larvae. Nature of the experiment: Galleria mellonella infection model, efficacy. The note with it: ceftazidime 1.56 mg/kg single dose. It is filed as in vivo. An excerpt: In vivo larvae-infection model.
Another experiment has as its system MDR PA108590. The experiment can be described thus: Time-kill assay, triple combination. In kind it is cell-based, Pseudomonas aeruginosa. As to conditions: 16 μg/mL, i.e. half MIC; MDR PA108590.
Where [3] appears, read: MIC of antibiotic combined with compound 2.

Take `CC(C)(O/N=C(\C(=O)N[C@@H]1C(=O)N2C(C(=O)[O-])=C(C[n+]3ccccc3)CS[C@H]12)c1csc(N)n1)C(=O)O` [Ceftazidime]: the “MICCombination (antibiotic)” value in the experiment on PA 101243 (setting [3]) was 8 µg/mL; with PA 262 (setting [3]), 4 µg/mL; in the experiment on PA 91433 (setting [3]), 512 µg/mL. Further, the FICI is reported as under 0.13 with PA 101243 (antibiotic + compound 2), under 0.31 with PA 262 (antibiotic + compound 2) and under 0.50 in the experiment with PA 91433 (antibiotic + compound 2). The MICAntibiotic with PA 101243 (antibiotic alone) came to 64 µg/mL; with PA 262 (antibiotic alone), 16 µg/mL; in the experiment on PA 91433 (antibiotic alone), 1024 µg/mL. In addition, the FICAntibiotic with PA 262 (with compound 2) worked out at 0.250; in the experiment with PA 91433 (with compound 2) it was 0.500. In the experiment with PA108590, the MIC – broadly, the least concentration at which growth counts as inhibited – turned out to be 0.032 µg/mL. Further, in experiment [1], the “resistant isolates reaching CLSI clinical breakpoint” value is “three out of six”. The figures for the survival of larvae in experiment [2] (after 24 h) and in experiment [2] (after 36 h) were 50% and 10%, respectively. Moreover, in the experiment with MDR PA108590, the “time-kill effect, alone” value was “bactericidal effects after 3 h”.
